Data: patent publication US20240109868A1, “EP300/CBP MODULATOR, PREPARATION METHOD THEREFOR AND USE THEREOF” (Miracure Biotechnology Limited, priority 2022, published 2024)

Tests used:
vCap Cell = assay: vCap cell growth inhibition, CellTiter-Glo, 72 h; format: cell-based; conditions: Homo sapiens, VCaP, 72 h, vCap cells, 72 h culture
Procedure: (§1) 22RV1 or vCap cells were cultured in RPMI-1640 medium (10% fetal bovine serum and 100 units (per mL) of penicillin/streptomycin dual antibody were added to RPMI-1640) in a 37° C., 5% CO2 cell incubator. Cells at the logarithmic growth phase were inoculated onto a 96-well cell culture plate at 5×10^3 cells/100 μL/well and cultured overnight. Solutions of different concentrations of an active compound in DMSO were added, with the final concentration being 0.5% DMSO. The positive control was 1% TweeN2O, and the negative control was 0.5% DMSO. After 72 h of culture, an equal volume of CellTiter-Glo was added to each well, and the mixtures were mixed homogeneously by shaking for 2 min. The plate was let stand at room temperature for 10 min, and fluorescence signal values were read using a microplate reader. Data were analyzed using Prism 7.0 and graphs were generated. The values are shown as mean f SEM (N=2). […] The X-axis represents compound concentration (μM), and the Y-axis represents % inhibition.

22Rv1 Cell = assay: 22RV1 cell growth inhibition, CellTiter-Glo, 72 h; format: cell-based; conditions: Homo sapiens, 22Rv1, 72 h, 22RV1 cells, 72 h culture
Procedure: as §1

Structure (SMILES)	IC50 (vCap Cell) [µM]	IC50 (22Rv1 Cell) [µM]
CC(=O)N1Cc2cc(C3CCC([S@](C)(=N)=O)CC3)cc(N3CCCc4cc(-c5cnn(C)c5)c(C(F)F)cc43)c2C1 (stereo in doubt) [Compound M001330]	> 1	> 1
CC(=O)N1Cc2cc(N3CCOCC3)cc(N3CCCc4cc(-c5cnn(C)c5)c(C(F)F)cc43)c2C1 [Compound M001001]	> 1	> 1
CC(=O)N1Cc2cc(N3CCNCC3)cc(N3CCCc4cc(-c5cnn(C)c5)c(C(F)F)cc43)c2C1 [Compound M001002]	> 1	> 1
CC(=O)N1Cc2cc(N3CCN(C)CC3)cc(N3CCCc4cc(-c5cnn(C)c5)c(C(F)F)cc43)c2C1 [Compound M001003]	> 1	> 1
CC(=O)N1Cc2cc(N3CCSCC3)cc(N3CCCc4cc(-c5cnn(C)c5)c(C(F)F)cc43)c2C1 [Compound M001004]	> 1	> 1
CNC(=O)N1CCc2cc(N3CCOCC3)cc(N3CCCc4cc(-c5cnn(C)c5)c(C(F)F)cc43)c2C1 [Compound M001014, 8-(7-(difluoromethyl)-6-(1-methyl-1H-pyrazol-4-yl)-3,4-dihydroquinolin-1(2H)-yl)-N-methyl-6-morpholine-3,4-dihydroisoquinoline-2(1H)-carboxamide]	> 1	> 1
CNC(=O)N1CCc2cc(CN3CCCC(C(=O)O)C3)cc(N3CCCc4cc(-c5cnn(C)c5)c(C(F)F)cc43)c2C1 (stereo not shown) [Compound M001015]	> 1	> 1
CNC(=O)N1CCc2cc(CN3CCC(C(=O)O)CC3)cc(N3CCCc4cc(-c5cnn(C)c5)c(C(F)F)cc43)c2C1 [Compound M001016]	> 1	> 1
CNC(=O)N1CCc2cc(C3CCNCC3)cc(N3CCCc4cc(-c5cnn(C)c5)c(C(F)F)cc43)c2C1 [Compound M001017]	> 1	> 1
CNC(=O)N1CCc2cc(C3CCN(C)CC3)cc(N3CCCc4cc(-c5cnn(C)c5)c(C(F)F)cc43)c2C1 [Compound M001018]	> 1	> 1
CNC(=O)N1CCc2cc(N3CCSCC3)cc(N3CCCc4cc(-c5cnn(C)c5)c(C(F)F)cc43)c2C1 [Compound M001019]	> 1	> 1
CNC(=O)N1CCc2cc(N3CCS(=O)(=O)CC3)cc(N3CCCc4cc(-c5cnn(C)c5)c(C(F)F)cc43)c2C1 [Compound M001021]	> 1	> 1
CNC(=O)N1CCc2cc(C3CCC(=O)N(CC(C)O)C3)cc(N3CCCc4cc(-c5cnn(C)c5)c(C(F)F)cc43)c2C1 (stereo not shown) [Compound M001223]		> 1
CC(=O)N1Cc2cc(C3CCC(=O)N(CC(C)O)C3)cc(N3CCCc4cc(-c5cnn(C)c5)c(C(F)F)cc43)c2C1 (stereo not shown) [Compound M001226]		> 1
CC(=O)N1Cc2cc(C3CCC(=O)N(C)C3)cc(N3CCCc4cc(-c5cn(C)nc5C(=O)N(C)C)c(C(F)F)cc43)c2C1 (stereo not shown) [Compound M001227]		> 1
CNC(=O)N1CCc2cc(C3CCC(=O)N(C)C3)cc(Nc3cc(C(F)F)c(-c4cnn(C)c4)cc3F)c2C1 (stereo not shown) [Compound M001232, 8-((5-(difluoromethyl)-2-fluoro-4-(1-methyl-1H-pyrazol-4-yl)phenyl)amino)-N-methyl-6-(1-methyl-6-oxopiperidin-3-yl)-3,4-dihydroisoquinoline-2(1H)-carboxamide]		> 1
CC(=O)N1Cc2cc(C3CCC(=O)N(C)C3)cc(Nc3cc(C(F)F)c(-c4cnn(C)c4)cc3F)c2C1 (stereo not shown) [Compound M001233]		> 1
CC(=O)N1Cc2cc(C3COC(=O)N(C)C3)cc(N3CCCc4cc(-c5cnn(C)c5)c(C(F)F)cc43)c2C1 (stereo not shown) [Compound M001238]		> 1
CNC(=O)N1CCc2cc(C3CCN(CC(C)O)C(=O)C3)cc(Nc3cc(C(F)F)c(-c4cnn(C)c4)cc3F)c2C1 (stereo not shown) [Compound M001240]		> 1
CC(=O)N1Cc2cc(C3CCN(CC(C)O)C(=O)C3)cc(Nc3cc(C(F)F)c(-c4cnn(C)c4)cc3F)c2C1 (stereo not shown) [Compound M001241]		> 1
CC(=O)N1Cc2cc(C3CCN(CCO)C(=O)C3)cc(N3CCCc4cc(-c5cnn(C)c5)c(C(F)F)cc43)c2C1 (stereo not shown) [Compound M001247]		> 1
CNC(=O)N1CCc2cc(C3CCN(CCO)C(=O)C3)cc(N3CCCc4cc(-c5cnn(C)c5)c(C(F)F)cc43)c2C1 (stereo not shown) [Compound M001248]		> 1
CC(=O)N1Cc2cc(C3CCN(CCF)C(=O)C3)cc(N3CCCc4cc(-c5cnn(C)c5)c(C(F)F)cc43)c2C1 (stereo not shown) [Compound M001250]		> 1
CNC(=O)N1CCc2cc(C3CCN(CCF)C(=O)C3)cc(N3CCCc4cc(-c5cnn(C)c5)c(C(F)F)cc43)c2C1 (stereo not shown) [Compound M001251]		> 1
CC(=O)N1Cc2cc(C3CCN(CC(F)F)C(=O)C3)cc(N3CCCc4cc(-c5cnn(C)c5)c(C(F)F)cc43)c2C1 (stereo not shown) [Compound M001254]		< 1

Structure (SMILES)	IC50 (vCap Cell) [µM]	IC50 (22Rv1 Cell) [µM]
CNC(=O)N1CCc2cc(C3CCN(CC(F)F)C(=O)C3)cc(N3CCCc4cc(-c5cnn(C)c5)c(C(F)F)cc43)c2C1 (stereo not shown) [Compound M001255]		< 1
CNC(=O)N1CCc2cc(C3CCC(=O)N(CCF)C3)cc(N3CCCc4cc(-c5cnn(C)c5)c(C(F)F)cc43)c2C1 (stereo not shown) [Compound M001256]		> 1
CC(=O)N1Cc2cc(C3CCC(=O)N(CCF)C3)cc(N3CCCc4cc(-c5cnn(C)c5)c(C(F)F)cc43)c2C1 (stereo not shown) [Compound M001257]		> 1
CC(=O)N1Cc2cc(C3CCCNC3=O)cc(N3CCCc4cc(-c5cnn(C)c5)c(C(F)F)cc43)c2C1 (stereo not shown) [Compound M001258]		> 1
CCN1CCN(c2cc3c(c(N4CCCc5cc(-c6cnn(C)c6)c(C(F)F)cc54)c2)CN(C(C)=O)C3)CC1=O [Compound M001262]		> 1
COC(=O)N1CCc2cc(C3CCOCC3)cc(N3CCCc4cc(-c5cnn(C)c5)c(C(F)F)cc43)c2C1 [Compound M001270]		> 1
COC(=O)N1CCc2cc(C3CCC(OC)CC3)cc(N3CCCc4cc(-c5cnn(C)c5)c(C(F)F)cc43)c2C1 (stereo not shown) [Compound M001271]		> 1
CNC(=O)N1CCc2cc(C3CCN(O)CC3)cc(N3CCCc4cc(-c5cnn(C)c5)c(C(F)F)cc43)c2C1 [Compound M001276, 8-[7-(difluoromethyl)-6-(1-methylpyrazol-4-yl)-3,4-dihydro-2H-quinolin-1-yl]-6-(1-hydroxypiperidin-4-yl)-N-methyl-3,4-dihydro-1H-isoquinoline-2-carboxamide]		> 1
CC(=O)N1Cc2cc(C3CCN(O)CC3)cc(N3CCCc4cc(-c5cnn(C)c5)c(C(F)F)cc43)c2C1 [Compound M001277]		> 1
CNC(=O)N1CCc2cc(C3CCN(C4CCC(=O)NC4=O)C(=O)C3)cc(N3CCCc4cc(-c5cnn(C)c5)c(C(F)F)cc43)c2C1 (stereo not shown) [Compound M001287]		> 1
CNC(=O)N1CCc2cc(-c3ccn(C4CCC(=O)NC4=O)c(=O)c3)cc(N3CCCc4cc(-c5cnn(C)c5)c(C(F)F)cc43)c2C1 (stereo not shown) [Compound M001300, 8-(7-(difluoromethyl)-6-(1-methyl-1H-pyrazol-4-yl)-3,4-dihydroquinolin-1(2H)-yl)-6-(1-(2,6-dioxopiperidin-3-yl)-2-oxo-1,2-dihydropyridin-4-yl)-N-methyl-3,4-dihydroisoquinoline-2(1H)-carboxamide]		> 1
CNC1CCC(c2cc3c(c(N4CCCc5cc(-c6cnn(C)c6)c(C(F)F)cc54)c2)CN(C(C)=O)C3)CC1 (stereo not shown) [Compound M001302]		> 1
CC(=O)N1Cc2cc([C@H]3CC[C@@H](N(C)C)CC3)cc(N3CCCc4cc(-c5cnn(C)c5)c(C(F)F)cc43)c2C1 [Compound M001303]		> 1
CC(=O)N1Cc2cc([C@H]3CC[C@@H](NS(C)(=O)=O)CC3)cc(N3CCCc4cc(-c5cnn(C)c5)c(C(F)F)cc43)c2C1 [Compound M001305]		< 1
CNC(=O)N1CCc2cc(C3CCN(S(C)(=O)=O)CC3)cc(N3CCCc4cc(-c5cnn(C)c5)c(C(F)F)cc43)c2C1 [Compound M001306]		> 1
CC(=O)N[C@H]1CC[C@@H](c2cc3c(c(N4CCCc5cc(-c6cnn(C)c6)c(C(F)F)cc54)c2)CN(C(C)=O)C3)CC1 [Compound M001308]		< 1
CC(=O)N1Cc2cc([C@H]3CC[C@H](NS(C)(=O)=O)CC3)cc(N3CCCc4cc(-c5cnn(C)c5)c(C(F)F)cc43)c2C1 [Compound M001309]		< 1
CN[C@H]1CC[C@H](c2cc3c(c(N4CCCc5cc(-c6cnn(C)c6)c(C(F)F)cc54)c2)CN(C(C)=O)C3)CC1 [Compound M001311]		> 1
CC(=O)N1Cc2cc([C@H]3CC[C@H](N(C)C)CC3)cc(N3CCCc4cc(-c5cnn(C)c5)c(C(F)F)cc43)c2C1 [Compound M001312]		> 1
CNC(=O)N1CCc2cc(C3CCC(NS(C)(=O)=O)CC3)cc(N3CCCc4cc(-c5cnn(C)c5)c(C(F)F)cc43)c2C1 (stereo not shown) [Compound M001314]		> 1
CNC(=O)N1CCc2cc([C@H]3CC[C@@H](NC(C)=O)CC3)cc(N3CCCc4cc(-c5cnn(C)c5)c(C(F)F)cc43)c2C1 [Compound M001316]		> 1
CNC(=O)N1CCc2cc([C@H]3CC[C@H](NC(C)=O)CC3)cc(N3CCCc4cc(-c5cnn(C)c5)c(C(F)F)cc43)c2C1 [Compound M001317]		> 1
CNC(=O)N1CCc2cc([C@H]3CC[C@@H](N)CC3)cc(N3CCCc4cc(-c5cnn(C)c5)c(C(F)F)cc43)c2C1 [Compound M001318]		> 1
CNC(=O)N1CCc2cc([C@H]3CC[C@H](N)CC3)cc(N3CCCc4cc(-c5cnn(C)c5)c(C(F)F)cc43)c2C1 [Compound M001319]		> 1
